The values below come from ChEMBL document CHEMBL1126977, “Derivatives of 1-hydroxy-3-aminopyrrolidin-2-one (HA-966). Partial agonists at the glycine site of the NMDA receptor” (Bioorg Med Chem Lett, 1993).

Some results are limits rather than exact numbers.

Series [1] is filed under the species Rattus norvegicus. Kind of series: In vitro inhibitory activity of glycine (0.3 uM) responses in isolated cultured cortical neurons. Type of series: functional.
Series [2] addresses Glutamate receptor ionotropic, NMDA 1 (Rattus norvegicus, UniProt P35439). Kind of series: Inhibition of [3H]glycine binding to rat cortical membranes. Type of series: cell membranes, Membrane.
Series [3] can be described thus: Compound was evaluated for the pKa value. Type of series: physicochemical.
Series [4] can be described thus: Compound was evaluated for the pKa value in experiment 1. Type of series: physicochemical.
The nature of series [5]: Compound was evaluated for the pKa value in experiment 2. Type of series: physicochemical.
A short description of series [6]: Compound was evaluated for the octanol-water partition coefficient […] at pH 7.4. Type of series: physicochemical.
The species named for series [7] is Rattus norvegicus. The experiment in a line: Tested in vitro for the inhibitory constant of glycine (0.3 uM) responses in isolated cultured cortical neurones. Type of series: functional.

One may read the Ki as the dissociation constant of the complex between target and ligand, obtained from inhibition or displacement. Broadly, the IC50 is the concentration needed to halve the response being measured. Read a low IC50 as inhibition by little substance. As a reminder, the Inhibition is the change of the read-out against control, counted positive when it falls. As usually defined, the pKa is the negative logarithm of the acid dissociation constant. Read a low pKa as a group that gives up its proton readily. What is called logD is the decadic logarithm of the distribution of all forms, ionised or not, between an organic phase and buffer at a given pH.

`N[C@H]1C(=O)N(O)C[C@H]1O` came in with a Ki in the series listed under Rattus norvegicus [1] of 0.75 µM. This compound showed an IC50 in series [2] of 1.3 µM.

Take `CCC[C@@H]1CNC(=O)[C@@H]1N`: in the series filed under Rattus norvegicus [1], the Inhibition is listed as 39%. The compound further came in with an IC50 in series [2] of over 100 µM.

On to `CC[C@@H]1CN(O)C(=O)[C@@H]1N`, for which, in the series listed under Rattus norvegicus [1], the inhibitory constant (Ki) worked out at 15.4 µM. This compound also showed an IC50 in series [2] of 15 µM. `C[C@@H]1CN(OCc2ccccc2)C(=O)[C@@H]1N` displayed a pKa in series [3] of 6.1. With `C[C@H]1CN(O)C(=O)[C@@H]1N`, the concentration for half-maximal inhibition (IC50) in series [2] was over 100 µM. For `N[C@H]1C(=O)N(O)C[C@@H]1O`, the Inhibition in the series listed under Rattus norvegicus [1] was determined as 30%. This compound also registered a half-maximal inhibitory concentration (IC50) in series [2] of 313 µM.

Consider `O=C1C2CC(CN2)N1O` (stereo not given), for which, in the series filed under Rattus norvegicus [1], the affinity corresponds to a Ki of 5 µM. Regarding `NC1CCN(OCc2ccccc2)C1=O` (stereo not given), the pKa in series [4] came out at 6.2; in series [5], 6.6. `C[C@H]1CN(O)C(=O)[C@H]1N` had a 50% inhibitory concentration (IC50) in series [2] of 86 µM. The compound `C[C@@H]1C2NCCC1N(O)C2=O` (stereo not given in full) came in with a Ki in the series listed under Rattus norvegicus [1] of over 80 µM. In series [2], this compound gave an IC50 of over 100 µM. For `C[C@H]1C2NCCC1N(O)C2=O` (stereo not given in full) the same measures were 8.2 µM and 48 µM.

`O=C1C2CC(CCN2)N1O` (stereo not given) displayed a Ki in the series listed under Rattus norvegicus [1] of 3.5 µM. Also, the half-inhibitory concentration (IC50) in series [2] was 19 µM. Turning to `O=C1C2NCCC2CN1O` (stereo not given), the Inhibition in the series listed under Rattus norvegicus [1] was found to be 52%. This compound also came in with a concentration for half-maximal inhibition (IC50) in series [2] of over 100 µM.

Consider `N[C@H]1C(=O)N(O)C[C@H]1CCO`, for which the Inhibition in the series listed under Rattus norvegicus [1] was found to be 59%. The compound also yielded an IC50 in series [2] of over 100 µM. As for `N[C@H]1C(=O)N(O)C[C@H]1CO`, in the series listed under Rattus norvegicus [1], the Inhibition came out at 63%. Further, the IC50 in series [2] is over 100 µM. In the case of `O=C1C2CC(CCN2)CN1O` (stereo not given), the Inhibition in the series listed under Rattus norvegicus [1] came to 28%. This compound also registered a 50% inhibitory concentration (IC50) in series [2] of over 100 µM. On to `O=C1C2CC(CN2)CN1O` (stereo not given), for which the Inhibition in the series listed under Rattus norvegicus [1] is listed as 16%. Further, the IC50 in series [2] is over 100 µM. For `N[C@H]1C(=O)N(O)C[C@H]1c1ccccc1` the same measures were 0% and over 100 µM. For `NC1CCN(O)C1=O` (single isomer, unassigned; (-)), in series [2], the IC50 came to 339 µM. As for `N[C@@H]1CCN(O)C1=O` (stereo in doubt; 1), the logD in series [6] came to 3.52. The compound also gave a pKa in series [3] of 8.1. In addition, the affinity in the series filed under Rattus norvegicus [1] corresponds to a Ki of 6.3 µM. The same compound gave an IC50 in series [2] of 27.2 µM. The matching figures for `C[C@@H]1CN(O)C(=O)[C@@H]1N` (stereo in doubt; 2): 3.42, 8, 1.3 µM and 2.9 µM. `N[C@@H]1CCN(O)C1=O` (stereo in doubt; (+)-1) came in with an inhibition constant Ki in the series filed under Rattus norvegicus [1] of 2.5 µM. The compound also had an IC50 in series [2] of 12.5 µM. As for `C[C@@H]1CN(O)C(=O)[C@@H]1N` (stereo in doubt; (+)-2), in the series listed under Rattus norvegicus [7], the affinity, expressed as Ki, was 0.65 µM. For the same compound, in series [2], the IC50 is 1.4 µM.
